From PubChem BioAssay (NCI)
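A five-concentration, 48-hour dose response in 96-well plates underlies each endpoint, interpolated linearly between surrounding concentrations. GI50 is the concentration that inhibits growth by half. At the TGI there is no net growth.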

Assays:
Experiment in all cases: DTP human tumour cell line panel, 48 h
RXF 393 renal = tested on: RXF 393 renal
SF-295 CNS = tested on: SF-295 CNS
SK-MEL-2 melanoma = tested on: SK-MEL-2 melanoma
SW-620 colon = tested on: SW-620 colon
HCT-15 colon = tested on: HCT-15 colon
SK-MEL-5 melanoma = tested on: SK-MEL-5 melanoma
CAKI-1 renal = tested on: CAKI-1 renal
RPMI-8226 leukemia = tested on: RPMI-8226 leukemia
COLO 205 colon = tested on: COLO 205 colon
UO-31 renal = tested on: UO-31 renal
TK-10 renal = tested on: TK-10 renal
OVCAR-8 ovarian = tested on: OVCAR-8 ovarian
T-47D breast = tested on: T-47D breast
U251 CNS = tested on: U251 CNS
SN12C renal = tested on: SN12C renal
NCI-H226 lung = tested on: NCI-H226 lung
SK-MEL-28 melanoma = tested on: SK-MEL-28 melanoma
MDA-MB-435 = tested on: MDA-MB-435
HCT-116 colon = tested on: HCT-116 colon
K-562 leukemia = tested on: K-562 leukemia
SR leukemia = tested on: SR leukemia
SNB-19 CNS = tested on: SNB-19 CNS
A498 renal = tested on: A498 renal
SF-539 CNS = tested on: SF-539 CNS
UACC-62 melanoma = tested on: UACC-62 melanoma
HCC-2998 colon = tested on: HCC-2998 colon
SK-OV-3 ovarian = tested on: SK-OV-3 ovarian
NCI/ADR-RES ovarian = tested on: NCI/ADR-RES ovarian
UACC-257 melanoma = tested on: UACC-257 melanoma
MOLT-4 leukemia = tested on: MOLT-4 leukemia
786-0 renal = tested on: 786-0 renal
SF-268 CNS = tested on: SF-268 CNS
IGROV1 ovarian = tested on: IGROV1 ovarian
HS 578T breast = tested on: HS 578T breast
HL-60(TB) leukemia = tested on: HL-60(TB) leukemia
LOX IMVI melanoma = tested on: LOX IMVI melanoma
MALME-3M melanoma = tested on: MALME-3M melanoma
OVCAR-4 ovarian = tested on: OVCAR-4 ovarian
PC-3 prostate = tested on: PC-3 prostate
CCRF-CEM leukemia = tested on: CCRF-CEM leukemia
M14 melanoma = tested on: M14 melanoma
ACHN renal = tested on: ACHN renal
MDA-MB-231 breast = tested on: MDA-MB-231 breast
KM12 colon = tested on: KM12 colon
A549 NSCLC = tested on: A549 NSCLC
SNB-75 CNS = tested on: SNB-75 CNS
BT-549 breast = tested on: BT-549 breast
DU-145 prostate = tested on: DU-145 prostate
OVCAR-5 ovarian = tested on: OVCAR-5 ovarian
HT29 colon = tested on: HT29 colon
MCF7 breast = tested on: MCF7 breast
NCI-H460 lung = tested on: NCI-H460 lung
HOP-92 NSCLC = tested on: HOP-92 NSCLC
EKVX NSCLC = tested on: EKVX NSCLC
HOP-62 NSCLC = tested on: HOP-62 NSCLC
NCI-H23 lung = tested on: NCI-H23 lung
NCI-H522 lung = tested on: NCI-H522 lung

Compound: CCC(CC)N1C(=O)/C(=c2\sc3n(c2=O)C2C(NN=3)N(CC)C(=O)N2CC)c2ccccc21 (centres undefined)
- GI50 (RXF 393 renal): 0.326 µM
- TGI (RXF 393 renal): 16.7 µM
- GI50 (SF-295 CNS): 0.324 µM
- TGI (SF-295 CNS): 12.3 µM
- GI50 (SK-MEL-2 melanoma): 1.92 µM
- TGI (SK-MEL-2 melanoma): 5.88 µM
- GI50 (SW-620 colon): 0.458 µM
- TGI (SW-620 colon): > 100 µM
- GI50 (HCT-15 colon): 0.353 µM
- TGI (HCT-15 colon): 13.1 µM
- GI50 (SK-MEL-5 melanoma): 0.59 µM
- TGI (SK-MEL-5 melanoma): 4.1 µM
- GI50 (CAKI-1 renal): 0.577 µM
- TGI (CAKI-1 renal): 14.9 µM
- GI50 (RPMI-8226 leukemia): 0.442 µM
- TGI (RPMI-8226 leukemia): 8.45 µM
- GI50 (COLO 205 colon): 0.317 µM
- TGI (COLO 205 colon): 1.12 µM
- GI50 (UO-31 renal): 0.688 µM
- TGI (UO-31 renal): 33.8 µM
- GI50 (TK-10 renal): 9.04 µM
- TGI (TK-10 renal): 29.1 µM
- GI50 (OVCAR-8 ovarian): 0.397 µM
- TGI (OVCAR-8 ovarian): 26.7 µM
- GI50 (T-47D breast): 2.8 µM
- TGI (T-47D breast): > 65.6 µM
- GI50 (U251 CNS): 0.405 µM
- TGI (U251 CNS): 15.5 µM
- GI50 (SN12C renal): 1.2 µM
- TGI (SN12C renal): 17.8 µM
- GI50 (NCI-H226 lung): 0.923 µM
- TGI (NCI-H226 lung): 37.1 µM
- GI50 (SK-MEL-28 melanoma): 5.82 µM
- TGI (SK-MEL-28 melanoma): 60.2 µM
- GI50 (MDA-MB-435): 0.24 µM
- TGI (MDA-MB-435): 0.602 µM
- GI50 (HCT-116 colon): 0.345 µM
- TGI (HCT-116 colon): 5.18 µM
- GI50 (K-562 leukemia): 0.351 µM
- TGI (K-562 leukemia): > 100 µM
- GI50 (SR leukemia): 0.361 µM
- TGI (SR leukemia): > 35.1 µM
- GI50 (SNB-19 CNS): 0.465 µM
- TGI (SNB-19 CNS): 24.6 µM
- GI50 (A498 renal): 0.287 µM
- TGI (A498 renal): 0.925 µM
- GI50 (SF-539 CNS): 0.307 µM
- TGI (SF-539 CNS): 3.43 µM
- GI50 (UACC-62 melanoma): 0.538 µM
- TGI (UACC-62 melanoma): 21.6 µM
- GI50 (HCC-2998 colon): 0.37 µM
- TGI (HCC-2998 colon): 12.6 µM
- GI50 (SK-OV-3 ovarian): 0.629 µM
- TGI (SK-OV-3 ovarian): 51.8 µM
- GI50 (NCI/ADR-RES ovarian): 0.385 µM
- TGI (NCI/ADR-RES ovarian): 15.6 µM
- GI50 (UACC-257 melanoma): 7.21 µM
- TGI (UACC-257 melanoma): > 78 µM
- GI50 (MOLT-4 leukemia): 0.434 µM
- TGI (MOLT-4 leukemia): > 41.1 µM
- GI50 (786-0 renal): 0.665 µM
- TGI (786-0 renal): 14.8 µM
- GI50 (SF-268 CNS): 1.07 µM
- TGI (SF-268 CNS): 29.3 µM
- GI50 (IGROV1 ovarian): 0.554 µM
- TGI (IGROV1 ovarian): 19.2 µM
- GI50 (HS 578T breast): 0.381 µM
- TGI (HS 578T breast): 22.5 µM
- GI50 (HL-60(TB) leukemia): 0.288 µM
- TGI (HL-60(TB) leukemia): 0.888 µM
- GI50 (LOX IMVI melanoma): 0.345 µM
- TGI (LOX IMVI melanoma): 11.1 µM
- GI50 (MALME-3M melanoma): 3.46 µM
- TGI (MALME-3M melanoma): 35.1 µM
- GI50 (OVCAR-4 ovarian): 10.4 µM
- TGI (OVCAR-4 ovarian): > 100 µM
- GI50 (PC-3 prostate): 0.473 µM
- TGI (PC-3 prostate): > 100 µM
- GI50 (CCRF-CEM leukemia): 0.365 µM
- TGI (CCRF-CEM leukemia): > 94 µM
- GI50 (M14 melanoma): 0.337 µM
- TGI (M14 melanoma): 11.5 µM
- GI50 (ACHN renal): 0.69 µM
- TGI (ACHN renal): 16.6 µM
- GI50 (MDA-MB-231 breast): 0.591 µM
- TGI (MDA-MB-231 breast): 12 µM
- GI50 (KM12 colon): 0.431 µM
- TGI (KM12 colon): 25.1 µM
- GI50 (A549 NSCLC): 0.503 µM
- TGI (A549 NSCLC): 21.7 µM
- GI50 (SNB-75 CNS): 0.198 µM
- TGI (SNB-75 CNS): 0.714 µM
- GI50 (BT-549 breast): 0.465 µM
- TGI (BT-549 breast): 3.29 µM
- GI50 (DU-145 prostate): 0.453 µM
- TGI (DU-145 prostate): 17.2 µM
- GI50 (OVCAR-5 ovarian): 0.538 µM
- TGI (OVCAR-5 ovarian): 35.3 µM
- GI50 (HT29 colon): 0.326 µM
- TGI (HT29 colon): 3.04 µM
- GI50 (MCF7 breast): 0.364 µM
- TGI (MCF7 breast): 14 µM
- GI50 (NCI-H460 lung): 0.364 µM
- TGI (NCI-H460 lung): 29 µM
- GI50 (HOP-92 NSCLC): 2.41 µM
- TGI (HOP-92 NSCLC): 45.4 µM
- GI50 (EKVX NSCLC): 0.734 µM
- TGI (EKVX NSCLC): > 87.8 µM
- GI50 (HOP-62 NSCLC): 0.554 µM
- TGI (HOP-62 NSCLC): 22.5 µM
- GI50 (NCI-H23 lung): 0.535 µM
- TGI (NCI-H23 lung): 17.8 µM
- GI50 (NCI-H522 lung): 0.312 µM
- TGI (NCI-H522 lung): 3.36 µM
